# Results: paper PMC4486710 (Parasites & Vectors, 2015)
# B1: TcCAT1.1 (Trypanosoma cruzi) (protein)
# chain: MDTESGNIAPGNDPVVVPELGSENGSGVKWRRTSSGMGALRCFTNIIPYGGLLSTTFNLASATLGGGVISLAAGFQMSGVAFSIILLVLVTVCTVYSVGLMMQAVEMTGYNSYAELSKKLFGRGWDHFTVVLTWLFTFGTCVGYVIAIGRLLEPVLSDPSLPEFWRSEAGNRAVTSAIWFVGMFSLSLPKEINSLRYASAVGVICIYYFIACIVVHSVQHGFRGGKLRDDVAMFKSGNGAIEGLSIFMFSYLCHMNCFSIFGEMRKPSARRMTLHTACSMALCCIAYIVAGFFGYADFGDEVTDTVLVFYDVRRDVLMAIAYAGIVFKLCVGFALCMQPARDCCYYIIGWDVATIPAWKNCLFCGVMALCALLLGLFIPVLNTVFGLLGSFCGGTLGFCLPALYRMYCGNWSLGTVGIVNYVCTYLLLMAGVVAVVFGTGASLYGVVR
# notes: full-length ORF, untagged, pYES2, expressed in S. cerevisiae HSC100-3C (can1 gap1 lyp1); 10 predicted transmembrane helices
# Substrate: N=C(N)NCCC[C@H](N)C(=O)O
# Assay: radiolabelled uptake in transformed S. cerevisiae, Michaelis-Menten fit
# Format: cell-based, Trypanosoma cruzi
# Details: labelled compound; glucose-repressed background subtracted; three trials
row,Molecule,Km [µM]
1,B1,85 ± 40

# Target: T1, TcCAT1.1 (Trypanosoma cruzi, UniProt A0A0H4FPU8)
# T1 construct: gene C3747_66g20; full-length ORF, untagged, pYES2, expressed in S. cerevisiae HSC100-3C (can1 gap1 lyp1); 10 predicted transmembrane helices
# T1 sequence (A0A0H4FPU8 1-448): B1 chain
# Assay: competition of [3H]-arginine uptake in transformed S. cerevisiae
# Format: cell-based
# Details: 1000 µM; 10 µM [3H]-arginine, 1 mM competitor, 30 min, room temperature
# From the text: competition of [3H]-arginine uptake in transformed S. cerevisiae on TcCAT1.1
row,Molecule,[^3H]-Arginine uptake(%)
1,NC(=O)CC[C@H](N)C(=O)O [glutamine],74.2 ± 25.6
2,NC(=O)C[C@H](N)C(=O)O [asparagine],78.0 ± 6.1
3,N[C@@H](Cc1cnc[nH]1)C(=O)O [histidine],67.3 ± 8.8
4,O=C(O)[C@@H]1CCCN1 [proline],72.3 ± 12.1
5,C[C@H](N)C(=O)O [alanine],67.9 ± 2.6
6,CC(C)C[C@H](N)C(=O)O [leucine],67.7 ± 16.2
7,NCCCNCCCCNCCCN [spermine],65.0 ± 6.6
8,NCCCC[C@H](N)C(=O)O [lysine],78.0 ± 26.7
9,N=C(N)NCCCC[C@H](N)C(=O)O [homoarginine],65.5 ± 12.1

# Same assay, conditions: 1000 µM; 10 µM [3H]-arginine, 1 mM competitor, 30 min, room temperature; possible substrate
row,Molecule,[^3H]-Arginine uptake(%)
1,N=C(N)NOCC[C@H](N)C(=O)O [canavanine],28.9 ± 6.3
